Experimental data as given in US20070154449A1, “TIGHT JUNCTION MODULATING PEPTIDES FOR ENHANCED MUCOSAL DELIVERY OF THERAPEUTIC COMPOUNDS” (Nastech Pharmaceutical Company Inc., priority 2005, published 2007).

Assays:
[1] = tested on: human-derived tracheal/bronchial epithelial cells (EpiAirway™ Tissue model system); assay: Transepithelial electrical resistance (TER), EpiAirway tissue model; assay type: cell-based
Method: EpiAirway™ culture membranes were received the day before the experiments started. They are shipped in phenol red-free and hydrocortisone-free Dulbecco's Modified Eagle's Medium (DMEM). The cells are ciliated and psudostratefied, grown to confluency on Millipore Multiscreen Caco-2 96-well assay system comprised of a polycarbonate filter system. Upon receipt, the insert system will be stored unopened at 4° C. and/or cultured in 250 μl basal media per well (phenol red-free and hydrocortisone-free Dulbecco's Modified Eagle's Medium (DMEM)) at 37° C./5% CO2 for 24 hours before use.
TER measurements were taken using the REMS Autosampler (World Precision Instruments, Sarasota, Fla.) with the electrode leads. The electrodes and a tissue culture blank insert will be equilibrated for at least 20 minutes in MatTek Air-100™ medium with the power off prior to checking calibration. The background resistance of the insert system has been established by multiple measurements of a blank insert plate and the same value was used for each test on the platform. Time zero TER (TER0) was measured before incubation of the inserts with the test formulation. The top electrode will be as adjusted so that it is close to, but not making contact with, the top surface of the insert membrane. Background resistance of the blank insert should be about 5-20 ohms. For each TER determination, 100 μl of MatTek Air-100™ medium was added to the insert and 250 μl in the basal well followed by placement in the Endohm chamber. All TER values are reported as a function of the surface area of the tissue. Resistance was expressed as both Ohms*cm^2 and percent original TER value.
TER values were calculated as: [formula] [formula] Formula terms for TER calculation defined: […]
A decrease in TER value relative to the control value indicates a decrease in cell membrane resistance and an increase in mucosal epithelial cell permeability.
(§1) Of the total 300 μl volume for each test formulation, only a 20 μl sample was applied to the human-derived tracheal/bronchial epithelial cells (EpiAirway™ Tissue model system) in order to assess the effect each test formulation had on TER, LDH and sample permeation.

[2] = tested on: human-derived tracheal/bronchial epithelial cells (EpiAirway™ Tissue model system); assay: Cytotoxicity (LDH assay), EpiAirway tissue model; assay type: cell-based
Method: The amount of cell death was assayed by measuring the release of lactate dehydrogenase (LDH) from the cells into the apical medium using a CytoTox 96 Cytotoxicity Assay Kit (Promega Corp., Madison, Wis.). One percent Octylphenolpoly (ethyleneglycolether)×(Triton X-100™) diluted in phosphate buffered saline (PBS) causes 100% lysis in cultured cells and served herein as a positive control for the LDH assay. Following the one hour incubation period with a test formulation (refer to Table 4 in Example 2 for details of test formulations), the total liquid volume of each insert was brought to a final volume of 200 μl with culture medium. The apical medium was then mixed by pipetting four times with a multichannel pipette set to a 100 μl volume. After mixing, a 100 μl sample from the apical side of each insert was transferred to a new 96-well plate. The apical media samples were sealed with a plate sealer and stored at room temperature for same day analysis or stored overnight at 4° C. for analysis the next day. To measure LDH levels, 5 μl of the 100 μl apical media sample was diluted in 45 μl DPBS in a new 96-well plate. Fresh, cell-free culture medium will be used as a blank. Fifty microliters of substrate solution was added to each well and incubated for 30 minutes at room temperature away from direct light. Following the 30 minute incubation, 50 μl of stop solution was added to each well. Optical density (OD) was measured at 490 nm with a uQuant absorbance plate reader from Biotek Instruments. The measurement of LDH release into the apical media indicates relative cytotoxicity of the samples. Percent cytotoxicity for each test formulation was calculated by subtracting the measured absorbance of the PBS control (basal level of LDH release) from the measured absorbance of the individual test formulation and then dividing that value by the measured absorbance for the 1% Triton X-100™ positive control, multiplied by 100.
The formula used to calculate percent cytotoxicity is as follows: [formula] Osmolality
as §1

[3] = tested on: human-derived tracheal/bronchial epithelial cells (EpiAirway™ Tissue model system); assay: FITC-Dextran (FD3) permeation assay, EpiAirway tissue model; assay type: cell-based; settings: 25 μM peptide, 1 h at 37° C.
Method: A FITC labeled dextran with a molecular weight 3000 (FD3) was used to assess the efficacy of individual TJMP on epithelial cell monolayer permeation. The tissue insert plates were transferred to a 96-well receiver plate containing 200 μl of DPBS++ as basal media. The apical surface of each tissue culture insert was incubated with a 20 μl sample of a single test formulation (refer to Table 4 in Example 2 for details of test formulations) for one hour at 37° C. in the dark on a shaker (˜100 rpm). Following the 1 hour incubation period, underlying basal media samples were taken from each tissue culture insert and temporarily stored in the dark at room temperature until FD3 levels were quantified by fluorescence spectroscopy. For FD3 measurements, a 150 μl of basal media sample was transferred to a black, clear bottom 96-well plate. Fluorescence emission at 528/20 following excitation at 485/20 were measured using a FLx800 fluorescence plate reader from Biotek Instruments.
Permeation was calculated as: [formula] [formula] Formula terms for permeation defined: […]
as §1

[4] = Chemical stability of PN159 in solution (stability indicating HPLC); assay type: physicochemical; settings: for loss of native PN159: 25° C.
Method: The chemical stability of the PN159 was determined under therapeutically relevant storage conditions. A stability indicating HPLC method was employed. Solutions (50 mM) were stored at various pH (4.0, 7.3, and 9.0) and temperature (5° C., 25° C., 35° C., 40° C., and 50° C.) conditions. Samples at pH 4 contained 10 mM citrate buffer. Samples at pH 7.3 and 9.0 contained 10 mM phosphate buffer. […] For example, at 5° C. and pH 4.0 or pH 7.3, there was essentially 100% recovery of PN159 for six month storage. […] The pH range of 4.0 to 7.3 and the temperature range of refrigerated to ambient are most relevant for intranasal formulations.

[5] = Intranasal PYY(3-36) pharmacokinetics in rabbits with various TJMPs (Example 10); assay type: in vivo, New Zealand White rabbits; settings: rabbit
Text: The tubes were chilled until […].

[6] = PYY(3-36) in plasma, 205 μg/kg intranasal with the named TJMP (concentration per Table 11, 50-1000 μM) or PBS, mean

## CC(C)C[C@H](NC(=O)[C@H](C)NC(=O)[C@H](CCCCN)NC(=O)[C@H](CC(C)C)NC(=O)[C@H](C)NC(=O)[C@H](CC(C)C)NC(=O)[C@H](CCCCN)NC(=O)[C@H](CC(C)C)NC(=O)[C@H](C)NC(=O)[C@H](CC(C)C)NC(=O)[C@@H](N)CCCCN)C(=O)N[C@@H](CCCCN)C(=O)N[C@@H](C)C(=O)N[C@@H](C)C(=O)N[C@@H](CC(C)C)C(=O)N[C@@H](CCCCN)C(=O)N[C@@H](CC(C)C)C(=O)N[C@@H](C)C(N)=O [PN159]
[1]; 25 μM peptide, pH 7, 20 μl applied
  % T0 TER: 7%
[1]; 25, 50, 100 μM PN159 with 40 mg/ml galantamine lactate, pH 5.0
  TER in the presence of galantamine: reduced TER
[2]; 25 μM peptide, 1 h incubation, % of 1% Triton X-100 control
  LDH: 31%
[2]; PN159 (25, 50, 100 μM) with galantamine lactate 40 mg/ml
  cytotoxicity as measured by LDH: low
[3]
  % FD3 Permeation: 8%
[4]; pH 4, after six months
  loss of native PN159: 7%
[4]; pH 7, after six months
  loss of native PN159: 26%
[4]; pH 9 and/or elevated temperature, e.g., 40 to 50° C.
  chemical stability of PN159: rapid deterioration
[5]; PYY(3-36) 205 μg/kg intranasal, TJMP concentration per Table 11: PN159 50 μM, PN161, PN202 100 μM, PN27 250 μM, PN58, PN73, PN228 500 μM, PN183, PN556 1000 μM
  In Vivo Tier Ranking: I
[5]; [6]
  AUCinf: 1.55e+06 pg·min/mL
  AUClast: 1.52e+06 pg·min/mL
  Cmax: 30.2 ng/mL
  T1/2: 30.2 min
  Tmax: 17.0a min
